Results from US10314775B2, “Methods of increasing hair growth and improving hair appearance” (MyMD Pharmaceuticals, Inc., priority 2016, dated 2019).

What was measured:
[1] = biological target: T1, MAO-A (Homo sapiens, UniProt P21397); experiment: MAO-Glo luminescent assay, MAO-A inhibition; type: biochemical; conditions: FIG. 1
T1 construct: purchased
T1 sequence (P21397 1-527): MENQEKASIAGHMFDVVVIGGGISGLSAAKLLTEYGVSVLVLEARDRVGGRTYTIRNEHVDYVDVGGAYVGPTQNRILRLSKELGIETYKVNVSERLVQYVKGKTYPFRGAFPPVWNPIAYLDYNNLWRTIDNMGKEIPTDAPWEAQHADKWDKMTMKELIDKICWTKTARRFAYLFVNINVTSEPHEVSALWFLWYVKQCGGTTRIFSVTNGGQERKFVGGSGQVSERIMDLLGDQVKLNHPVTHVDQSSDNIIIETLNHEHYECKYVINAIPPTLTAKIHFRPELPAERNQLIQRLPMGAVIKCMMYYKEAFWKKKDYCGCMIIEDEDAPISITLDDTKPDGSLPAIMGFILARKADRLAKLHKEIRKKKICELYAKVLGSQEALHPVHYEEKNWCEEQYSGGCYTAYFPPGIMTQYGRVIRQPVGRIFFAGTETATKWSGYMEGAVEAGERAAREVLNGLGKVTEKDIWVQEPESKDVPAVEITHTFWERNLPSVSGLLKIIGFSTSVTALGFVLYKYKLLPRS
Source text: (§1) This example describes experiments for determining monoamine oxidase (MAO) inhibition for isomyosmine and other alkaloids. MAOs are enzymes located on the outer membrane of mitochondria and are involved in the catabolism of monoamine neurotransmitters. There are two well-characterized isoenzymes: MAO-A, which predominantly catabolizes serotonin and norepinephrine, and MAO-B, which preferentially catabolizes benzylamine and phenylethylamine. Dopamine and tyramine are metabolized by both isoforms.
(§2) To detect the activity of MAO, a luminescent method (MAO-Glo Assay kit, from Promega, Cat # V1401) was used. In this method, a MAO substrate (a derivative of beetle luciferin provided in the kit) is mixed with the compound to be tested (in this case, myosmine and control compounds). Then, the MAO enzymes (either A or B, purchased separately) are added to the mixture and incubated with the reaction for 1 hour at room temperature. The MAO enzymes, if not inhibited by the test compound, will convert the substrate into methyl ester luciferin. Finally, a luciferin detection reagent (provided by the kit) is added (20 minutes at room temperature) to stop the MAO reaction and convert methyl ester luciferin into D-luciferin. […] The luminescent signal is measured and recorded using a luminometer.
Anatabine was obtained from Emerson Resources, Norristown, Pa.

[2] = biological target: T2, MAO-B (Homo sapiens, UniProt P27338); experiment: MAO-Glo luminescent assay, MAO-B inhibition; type: biochemical; conditions: FIG. 2; compared with myosmine, anatabine, anabasine, nornicotine
T2 construct: purchased
T2 sequence (P27338 1-520): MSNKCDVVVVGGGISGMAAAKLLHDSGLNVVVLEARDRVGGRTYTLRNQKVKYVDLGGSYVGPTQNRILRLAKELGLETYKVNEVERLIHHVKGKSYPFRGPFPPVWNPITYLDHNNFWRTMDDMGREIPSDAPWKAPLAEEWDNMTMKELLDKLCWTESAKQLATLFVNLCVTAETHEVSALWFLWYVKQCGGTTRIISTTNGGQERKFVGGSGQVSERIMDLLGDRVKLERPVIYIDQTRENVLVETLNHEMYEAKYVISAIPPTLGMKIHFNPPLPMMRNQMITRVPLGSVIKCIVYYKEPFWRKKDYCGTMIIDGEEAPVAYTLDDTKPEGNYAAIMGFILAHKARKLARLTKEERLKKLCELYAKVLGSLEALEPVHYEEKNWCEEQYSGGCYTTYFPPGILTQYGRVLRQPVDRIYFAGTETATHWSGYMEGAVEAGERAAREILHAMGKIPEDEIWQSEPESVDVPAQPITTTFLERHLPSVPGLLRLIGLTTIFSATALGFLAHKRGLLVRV
Source text: as §1
as §2, with “luminometer. […]” for “luminometer.”

[3] = test system: male-pattern baldness; experiment: Oral treatment of a person with male-pattern baldness (scalp photographs); type: in vivo, human; conditions: oral 60 mg/day, photographs after three weeks and 90 days of treatment (FIG. 3-5)
Method: A person and approximately 75 kg in weight was experiencing male-pattern baldness. The individual was orally administered isomyosmine at a dosage of 60 mg/day over the course of three weeks. FIG. 3 is a photograph of the scalp of the individual before treatment. FIG. 4 is a photograph of the scalp of the individual after three weeks of treatment (and a haircut). FIG. 5 is a photograph of the scalp of the individual after 90 days of treatment.

With C1=NC(c2cccnc2)CC1 (stereo not shown) [isomyosmine, 3-(3,4-dihydro-2H-pyrrol-2-yl)-pyridine] the inhibition at 2000 µM ([1]; 2 mM concentration (2,000 micromolar), read-out: inhibition of the enzymatic activity of MAO-A) was roughly 50%, the “inhibiting the enzymatic activity of MAO-A, comparison of curves” value ([1]; compared with myosmine, anatabine, anabasine, nornicotine, clorgyline positive control) was “the most potent of the five” and the “inhibiting the activity of MAO-B, comparison of curves” value [2] was “the most potent among the five alkaloids tested”. The “hair growth on the scalp” value [3] was “significant new growth of healthy, dark-colored hair on the scalp”.
